Like-named read-outs stand apart in the source and are kept apart here.
Experiments:
[1] = target: class A β-lactamase Imi-1 (Enterobacter cloacae, UniProt Q46991); assay: β-Lactamase inhibition, IC50 determination (nitrocefin, spectrophotometric); format: biochemical
class B enzyme CcrA = class B enzyme CcrA (Bacteroides fragilis, UniProt P25910); assay: as above; format: biochemical; settings: enzyme 1.2 nM; 10 min preincubation at 25° C.; nitrocefin 50 μg/ml; 50 mM PO4, pH 7.0; read-out: IC50 (nM) Class B Ccr
Method in brief: (§1)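 Purified enzymes TEM-1 (4.3 nM), Imi-1 (7.1 nM), CcrA (1.2 nM) and AmpC (2.1 nM) were preincubated with inhibitor 10 min at 25 °C in 50 mM PO4, pH 7.0. Nitrocefin (50 μg/ml) hydrolysis rates at 495 nm over 5 min gave % inhibition versus control; IC50 determined graphically.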

class C enzyme AmpC = class C enzyme AmpC (Enterobacter cloacae, UniProt P05364); assay: biochemical; set-up: species or system Enterobacter cloaca
Method in brief: as §1

[2] = test system: Clinical isolates that have been adapted to cause infection in mice; assay: In vivo antibacterial protection (7 day survival of infected mice, ED50); set-up: species or system mice strain CD-1; settings: Ratio of Piperacillin Inhibitor not given
From the text: In Vivo Antibacterial Protection
Female mice strain CD-1, approximately 18-22 grams, were received from Charles River Laboratories and quarantined 7 days prior to use. In addition, mice may be rendered neutropenic using cytoxan for particular studies.
Clinical isolates that have been adapted to cause infection in mice, are used in the experiment, including infections with strains of E. coli, K. pneumoniae, M. morganii, E. cloacae, S. marcescens, C. freundii, staphylococci, streptococci, P. aeruginosa and N. gonorrhoeae.
Mice are challenged by injecting 0.5 ml intraperitoneally or 0.05 ml intranasally of a predetermined bacterial inoculum suspended in broth, saline or hog gastric mucin (supplemented with dried bovine hemoglobin for N. gonorrhoeae). […] Antibacterial doses (dose concentration prepared by two fold serial dilutions of the antibiotic) are dissolved or suspended in 0.2% aqueous agar or methocel, phosphate buffered saline or an adjuvant are administered orally, subcutaneously or intravenously in the following manner: • a) Orally or subcutaneously: Dose volume of 0.5 ml administered ½ hr after infection. A second dose may be administered 3 hr. after infection for treatment of infections with more virulent organisms. • b) Intravenously: Dose volume of 0.2 ml, administered ½ hr. after infection. For the treatment of infections with more virulent organisms, more doses, up to 48 hr may be administered. (Intravenous dosing will not exceed 3 doses/24 hr period.) • c) Oral pretreatment: Under special circumstances, the pH of the stomach needs to be adjusted in order to increase the gastric stability of the antibiotic. For this purpose, 0.5 ml of phosphate buffered saline (pH7.8, 0.06M) (or specific approved adjuvant) is administered orally ½ hr after infection, followed 5 minutes later by 0.5 ml of antibiotic (also orally) contained in phosphate buffered saline (pH7.8, 0.06M). Animal Species
A detailed explanation as to the number of animals needed for the determination of in vivo efficacy follows: • A) Novel antibiotics are tested at 5 different dose levels with 5 mice per dose level at each of three routes of administration (oral, subcutaneous and intravenous). […] This would require 25 mice/route with 3 routes/antibiotic or 75 mice per novel compound tested. One to two novel antibiotics will be tested per experiment (75-150 mice) • B) The effectiveness of the new compound must be compared to that of a standard, or antibiotic of known effectiveness. Known or previously tested antibiotics are tested at 5 dose levels with 5 mice per dose level by a single route of administration, for a total of 25 mice/antibiotic. Usually 3-6 antibiotics will be tested per experiment. (75-150 mice). • C) Untreated controls—In each of the above tests, untreated animals are infected with 3 different concentrations of bacterial inoculum with 10 mice per concentration (30 mice total in each and every test). These untreated controls are used to determine and maintain the infection level between 10-100 LD50s as required for test to test comparison and validity. Determination of Protective Effects of Antibacterial Agents:
The protective effects of the antibacterial agent(s) are measured by the survival of the infected untreated as compared to the treated animals. For this determination, animals are observed for 7 days after treatment. A census of survivors is taken twice daily and at that time dead as well as moribund animals are removed. The 7 day survival ratio from three separate tests are pooled for estimation of median effective dose (ED50) by computerized program for probit analysis (Cleeland, R. and E. Squires. 1991. Evaluation of New Antimicrobials in Vitro and in Experimental Animal Infections. In Antibiotics in Laboratory Medicine”, 3rd. ed., edited by Victor Lorian. Willams and Wilkins Baltimore, Md. pp. 752-783). […]

[3] = target: class A β-lactamase TEM-1 (Escherichia coli, UniProt P62593); assay: β-Lactamase inhibition, IC50 determination (nitrocefin, spectrophotometric); format: biochemical, E. Coli
Method in brief: as §1

E. Coli GC2847 (TEM-1) = assay: Antimicrobial susceptibility testing, microbroth dilution MIC of piperacillin + inhibitor; format: cell-based; settings: piperacillin combined with constant 4 μg/ml inhibitor; Inc: 35° C. for 18 hours
Method in brief: (§2)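 Microbroth dilution per NCCLS M7-A5 in Mueller-Hinton II broth: two-fold piperacillin dilutions with β-lactamase inhibitor fixed at 4 μg/ml final. Inoculum 10^5 CFU/ml; incubation 18-22 hours at 35° C. in ambient air.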

E. Coli GC2844 = assay: as above; format: cell-based; settings: piperacillin combined with constant 4 μg/ml inhibitor; Inc: 35° C. for 18 hours
Method in brief: as §2

E. Coli GC2203 = assay: as above; format: cell-based; settings: piperacillin combined with constant 4 μg/ml inhibitor; Inc: 35° C. for 18 hours
Method in brief: as §2

E. Cloacae GC1477 (Ampc) = assay: as above; format: cell-based; settings: piperacillin combined with constant 4 μg/ml inhibitor; Inc: 35° C. for 18 hours
Method in brief: as §2

E. Coli GC2920 (IRT-2) = assay: as above; format: cell-based; settings: piperacillin combined with constant 4 μg/ml inhibitor; Inc: 35° C. for 18 hours
Method in brief: as §2

S. aureus GC2216 = assay: as above; format: cell-based; settings: piperacillin combined with constant 4 μg/ml inhibitor; Inc: 35° C. for 18 hours
Method in brief: as §2

E. Coli GC2894 (Ampc) = assay: as above; format: cell-based; settings: piperacillin combined with constant 4 μg/ml inhibitor; Inc: 35° C. for 18 hours
Method in brief: as §2

[4] = test system: S. Marcescens GC1781 Sme-1 + Ampc; assay: as above; format: cell-based; settings: piperacillin combined with constant 4 μg/ml inhibitor; Inc: 35° C. for 18 hours
Method in brief: as §2

[5] = test system: P. aeruginos GC1764 (Ampc); assay: as above; format: cell-based; settings: piperacillin combined with constant 4 μg/ml inhibitor; Inc: 35° C. for 18 hours
Method in brief: as §2

[6] = test system: class-A producing pathogens; settings: background statement; cited from earlier work
[7] = test system: class C producing organisms; settings: background statement; cited from earlier work

Sequence of class B enzyme CcrA (P25910 19-249): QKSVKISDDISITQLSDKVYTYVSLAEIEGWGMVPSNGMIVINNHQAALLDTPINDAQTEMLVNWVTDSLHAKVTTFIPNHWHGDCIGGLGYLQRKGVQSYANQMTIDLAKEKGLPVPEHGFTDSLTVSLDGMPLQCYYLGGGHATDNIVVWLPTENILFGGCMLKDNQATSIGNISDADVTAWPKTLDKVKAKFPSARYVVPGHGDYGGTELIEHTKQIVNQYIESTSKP
Sequence of class A β-lactamase TEM-1 (P62593 24-286 limits assumed): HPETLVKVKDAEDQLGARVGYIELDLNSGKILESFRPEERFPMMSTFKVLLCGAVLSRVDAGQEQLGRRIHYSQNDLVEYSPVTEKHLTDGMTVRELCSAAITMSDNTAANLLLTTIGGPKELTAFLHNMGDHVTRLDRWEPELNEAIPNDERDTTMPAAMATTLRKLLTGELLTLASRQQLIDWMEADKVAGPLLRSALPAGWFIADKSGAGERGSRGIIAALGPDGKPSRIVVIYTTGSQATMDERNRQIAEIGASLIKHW
Sequence of class C enzyme AmpC (P05364 21-381): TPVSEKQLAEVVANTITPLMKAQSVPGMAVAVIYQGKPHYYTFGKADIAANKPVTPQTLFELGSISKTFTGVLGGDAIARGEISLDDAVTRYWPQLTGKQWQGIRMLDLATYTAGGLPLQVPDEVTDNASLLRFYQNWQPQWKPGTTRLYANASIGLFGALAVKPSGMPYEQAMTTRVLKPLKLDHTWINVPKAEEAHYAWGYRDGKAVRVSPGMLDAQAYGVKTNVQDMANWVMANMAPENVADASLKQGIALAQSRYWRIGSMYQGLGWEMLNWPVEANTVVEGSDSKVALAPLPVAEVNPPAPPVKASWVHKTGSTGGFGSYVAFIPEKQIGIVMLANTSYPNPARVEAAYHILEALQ
Sequence of class A β-lactamase Imi-1 (Q46991 entry or part of it): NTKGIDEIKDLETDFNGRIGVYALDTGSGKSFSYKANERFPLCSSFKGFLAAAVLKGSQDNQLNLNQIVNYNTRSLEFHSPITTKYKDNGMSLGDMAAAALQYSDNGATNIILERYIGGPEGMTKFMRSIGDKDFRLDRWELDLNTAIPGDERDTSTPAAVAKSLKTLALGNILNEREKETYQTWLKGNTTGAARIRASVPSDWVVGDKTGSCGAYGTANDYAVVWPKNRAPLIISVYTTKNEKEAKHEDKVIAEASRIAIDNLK

SMILES: O=C(O)C1=CS[C@@H]2/C(=C\c3cn4c5c(sc4n3)CCCC5)C(=O)N12 [Example 19, (5R),(6Z)-7-oxo-6-(5,6,7,8-tetrahydroimidazo[2,1-b][1,3]benzothiazol-2-ylmethylene)-4-thia-1-azabicyclo[3.2.0]hept-2-ene-2-carboxylic acid]
- IC50 ([1]; enzyme 7.1 nM, 10 min preincubation at 25° C., nitrocefin 50 μg/ml, 50 mM PO4, pH 7.0, read-out: IC50 (nM) Class A Imi): 33 nM
- IC50 (class B enzyme CcrA): 215 nM
- IC50 (class C enzyme AmpC; enzyme 2.1 nM, 10 min preincubation at 25° C., nitrocefin 50 μg/ml, 50 mM PO4, pH 7.0, read-out: IC50 (nM) Class C AmpC): 0.62 nM
- ED50 [2]: 63 mg/kg
- IC50 ([3]; enzyme 4.3 nM, 10 min preincubation at 25° C., nitrocefin 50 μg/ml, 50 mM PO4, pH 7.0, read-out: IC50 (nM) Class A TEM-1): 1.9 nM
- Minimal Inhibitory Concentration E. Coli GC2847 (TEM-1) (E. Coli GC2847 (TEM-1)): 8 µg/mL
- Minimal Inhibitory Concentration E. Coli GC2844 (E. Coli GC2844): 2 µg/mL
- Minimal Inhibitory Concentration E. Coli GC2203 (E. Coli GC2203): 2 µg/mL
- Minimal Inhibitory Concentration E. Cloacae GC1477 (Ampc) (E. Cloacae GC1477 (Ampc)): 32 µg/mL
- Minimal Inhibitory Concentration E. Coli GC2920 (IRT-2) (E. Coli GC2920 (IRT-2)): 2 µg/mL
- Minimal Inhibitory Concentration S. aureus GC2216 (S. aureus GC2216): .06 µg/mL
- Minimal Inhibitory Concentration E. Coli GC2894 (Ampc) (E. Coli GC2894 (Ampc)): 4 µg/mL
- Minimal Inhibitory Concentration S. Marcescens GC1781 Sme-1 + Ampc [4]: 8 µg/mL
- Minimal Inhibitory Concentration P. aeruginos GC1764 (Ampc) [5]: 1 µg/mL

SMILES: Cc1nc2nc(/C=C3/C(=O)N4C(C(=O)[O-])=CS[C@H]34)nn2c2c1CCC2.[Na+] [Example 22, (5R,6Z)-6-[(5-methyl-7,8-dihydro-6H-cyclopenta[e][1,2,4]triazolo[1,5-a]pyrimidin-2-yl)methylene]-7-oxo-4-thia-1-azabicyclo[3.2.0]hept-2-ene-2-carboxylic acid, sodium salt]
- melting point: 250 °C (dec.)

SMILES: O=C([O-])C1=CS[C@@H]2/C(=C\c3nc4ncc5c(n4n3)CCC3(C5)OCCO3)C(=O)N12.[Na+] [Example 24, (5R,6Z)-6-(8′,9′-dihydro-6′H-spiro[1,3-dioxolane-2,7′-[1,2,4]triazolo[1,5-a]quinazolin]-2′-ylmethylene)-7-oxo-4-thia-1-azabicyclo[3.2.0]hept-2-ene-2-carboxylic acid, sodium salt]
- melting point: > 250 °C (dec.)

SMILES: Cc1nc2nc(/C=C3/C(=O)N4C(C(=O)[O-])=CS[C@H]34)nn2c2c1CCCC2.[Na+] [Example 25, (5R,6Z)-6-[(5-methyl-6,7,8,9-tetrahydro[1,2,4]triazolo[1,5-a]quinazolin-2-yl)methylene]-7-oxo-4-thia-1-azabicyclo[3.2.0]hept-2-ene-2-carboxylic acid, sodium salt]
- melting point: 250 °C (dec.)

SMILES: O=C([O-])C1=CS[C@@H]2/C(=C\c3cn4c5c(c(OCCOCc6ccccc6)nc4n3)CCC5)C(=O)N12.[Na+] [Example 27, (5R,6Z)-6-(5-[2-(benzyloxy)ethoxy]-7,8-dihydro-6H-cyclopenta[e]imidazo[1,2-a]pyrimidin-2-ylmethylene)-7-oxo-4-thia-1-azabicyclo[3.2.0]hept-2-ene-2-carboxylic acid, sodium salt]
- IC50 [1]: 33 nM
- IC50 (class B enzyme CcrA): 180 nM
- IC50 (class C enzyme AmpC): 3 nM
- IC50 [3]: 12 nM
- melting point: > 250 °C

SMILES: O=C([O-])C1=CS[C@@H]2/C(=C\c3ccc4nc5n(c4c3)CCS5)C(=O)N12.[Na+] [Example 28, (5R,6Z)-6-(2,3-dihydro[1,3]thiazolo[3,2-a]benzimidazol-6-ylmethylene)-7-oxo-4-thia-1-azabicyclo[3.2.0]hept-2-ene-2-carboxylic acid, sodium salt]
- IC50 [1]: 90 nM
- IC50 (class B enzyme CcrA): 110 nM
- IC50 (class C enzyme AmpC): 5.7 nM
- IC50 [3]: 3.2 nM
- melting point: > 250 °C

SMILES: O=C([O-])C1=CS[C@@H]2/C(=C\c3ccc4nc5n(c4c3)CCCS5)C(=O)N12.[Na+] [Example 29, (5R,6Z)-6-(3,4-dihydro-2H-[1,3]thiazino[3,2-a]benzimidazol-7-ylmethylene)-7-oxo-4-thia-1-azabicyclo[3.2.0]hept-2-ene-2-carboxylic acid, sodium salt]
- IC50 [1]: 300 nM
- IC50 (class B enzyme CcrA): 240 nM
- IC50 (class C enzyme AmpC): 18 nM
- IC50 [3]: 15 nM
- melting point: > 250 °C

SMILES: O=C([O-])C1=CS[C@@H]2/C(=C\c3ccc4nc5sccn5c4c3)C(=O)N12.[Na+] [Example 30, (5R,6Z)-7-oxo-6-([1,3]thiazolo[3,2-a]benzimidazol-6-ylmethylene)-4-thia-1-azabicyclo[3.2.0]hept-2-ene-2-carboxylic acid, sodium salt]
- IC50 [1]: 200 nM
- IC50 (class B enzyme CcrA): 97 nM
- IC50 (class C enzyme AmpC): 9.3 nM
- IC50 [3]: 46 nM
- melting point: > 250 °C

SMILES: O=C(O)[C@H]1/C(=C/CO)O[C@@H]2CC(=O)N21 [clavulanic acid]
- effectiveness against class-A producing pathogens [6]: effective
- effectiveness against class C producing organisms [7]: ineffective

SMILES: CC1(C)[C@H](C(=O)O)N2C(=O)C[C@H]2S1(=O)=O [sulbactam]
- effectiveness against class-A producing pathogens [6]: effective
- effectiveness against class C producing organisms [7]: ineffective

SMILES: C[C@]1(Cn2ccnn2)[C@H](C(=O)O)N2C(=O)C[C@H]2S1(=O)=O [tazobactam]
- effectiveness against class-A producing pathogens [6]: effective
- effectiveness against class C producing organisms [7]: ineffective

From patent US7691842B2, “Tricyclic 6-alkylidene-penems as β-lactamase inhibitors” (Wyeth LLC, priority 2002, dated 2010)
